# Values of other authors in US6994842B2, “Aerogel powder therapeutic agents” (Aspen Aerogels, Inc., priority 2000, dated 2006).
SMILES,solubility in water,solubility in supercritical carbon dioxide (supercritical carbon dioxide)
CCC(=O)C(CC(C)N(C)C)(c1ccccc1)c1ccccc1 (stereo not drawn) [Methadone],12 g/100 mL,–
"O=C1CC[C@@]2(O)[C@H]3Cc4ccc(O)c5c4[C@@]2(CCN3CC2CC2)[C@H]1O5 [free base Naltrexone, Naltrexone]",not that soluble,highly soluble
